What was measured:
[1] = Glucose-induced membrane lipid peroxidation (LOOH, CHOD-iodide assay) in DLPC/cholesterol multilamellar vesicles (Example 4); format: biochemical
Description: Vitamin E (α-tocopherol) was also purchased from Sigma-Aldrich and prepared in ethanol at 1.0 mM (ε=3.06×10^4 M^−1 cm^−1 at 294 nm) just prior to experimental use. […] All test compounds were further diluted in ethanol or aqueous buffer as needed. Glucose was prepared in saline buffer (0.5 mM HEPES, 154 mM NaCl, pH 7.3) at 11.0 mM (200 mg/dL). CHOD-iodide color reagent (stock) was prepared, with slight modification, as described by from El-Saadani et al. (J. […] Samples were shell-dried under nitrogen gas and placed under vacuum for 1 h to remove residual solvent. […] Lipid suspensions were then vortexed for 3 min at ambient temperature to form MLVs. All MLV samples were subjected to time-dependent autoxidation by incubating at 37° C. in an uncovered, shaking water bath. This method allows lipid peroxidation to occur gradually without requiring the use of exogenous initiators. Small aliquots (5-100 μL) of each sample were removed, immediately following MLV preparation (0 hour) and after exposing samples to oxidative conditions for 72 or 96 hour, and combined with 1.0 mL of activated CHOD-iodide color reagent. Aliquot volume was reduced with each successive time point to ensure that spectrophotometric readings were within the optimal adsorption range. Test samples were covered and incubated in darkness at room temperature for at least 4 hr. Sample absorbances were then measured against a CHOD blank at 365 nm using a Beckman DU-640 spectrophotometer. The CHOD colorimetric assay is based on the oxidation of iodide (I^−) by lipid hydroperoxide (LOOH) to form triiodide (I3^−), the quantity of which is directly proportional to the amount of LOOH present in the lipid sample. The molar absorptivity (c) of I3^− is 2.46×10^4 M^−1 cm^−1 at 365 nm. […] The concentration of glucose selected was consistent with previous experimental studies of hyperglycemia under controlled laboratory conditions or observed in well-defined animal models of Type II diabetes following a glucose challenge. […] Values in FIG. 1 are mean±S.D. (N=6). EPA inhibited the peroxidative effects of glucose by 88% and 86% at 72 and 96 hours, respectively, which was highly significant (p<0.001) as compared to glucose treatment alone. […] Overall ANOVA—0 hour data: p=0.6655, F=0.4185; 72 hour data: p<0.0001, F=428.72; 96 hour data: p<0.0001, F=322.01.

[2] = LOOH formation in glucose-treated model membranes, EPA versus EA and ETE (Example 5); format: biochemical; conditions: 72 or 96 hr autoxidation
Description: An experiment was conducted to compare the ability of EPA to prevent lipid hydroperoxide formation in model membranes treated with glucose to two other 20-carbon fatty acids: eicosanoic acid (“EA,” also referred to as arachidic acid, C20:0) and eicosatrienoic acid (“ETE,” C20:3, n-3). All MLV samples were subjected to time-dependent autoxidation by incubating at 37° C. in an uncovered, shaking water bath. This method allows lipid peroxidation to occur gradually without requiring the use of exogenous initiators. Small aliquots (5-100 μL) of each sample were removed, immediately following MLV preparation (0 hr) and after exposing samples to oxidative conditions for 72 or 96 hr, and combined with 1.0 mL of activated CHOD-iodide color reagent. Aliquot volume was reduced with each successive time point to ensure that spectrophotometric readings were within the optimal adsorption range. Test samples were covered and incubated in darkness at room temperature for at least 4 hr. Sample absorbances were then measured against a CHOD blank at 365 nm using a Beckman DU-640 spectrophotometer. The CHOD colorimetric assay is based on the oxidation of iodide (I^−) by lipid hydroperoxide (LOOH) to form triiodide (I3^−), the quantity of which is directly proportional to the amount of LOOH present in the lipid sample. The molar absorptivity (ε) of I3^− is 2.46×10^4 M^−1 cm^−1 at 365 nm.

[3] = system: HUVECs; experiment: NO and ONOO^− release from HUVECs pretreated with agents, then oxLDL (Example 11, objective 1); format: cell-based, human; conditions: agents 10 μM, 30 min pretreatment, then oxLDL 11 mg/dL up to 3 hr
Description: Human umbilical vein endothelial cells (HUVECs) were obtained from healthy, female donors and isolated into primary, proliferating cell cultures (Clonetics, San Diego, Calif.). […] The confluent cells (4 to 5×10^5 cells/35 mm dish) were plated with minimum essential medium containing 3 mM L-arginine and 0.1 mM BH4 [(6R)-5,6,7,8-tetrahydrobiopterin]. Before experimental use, the cells (from second or third passage) were rinsed twice with Tyrode-HEPES buffer with 1.8 mM CaCl2.
Venous blood was collected from healthy volunteers into vacutainer tubes containing sodium EDTA. […] The LDL subfraction was retained for additional experimentation. Plasma and lipoprotein fractions were maintained at 4° C. and protected from excessive exposure to light. Prior to oxidation experiments, EDTA was removed from the lipoprotein fraction using PD-10 desalting columns (GE Healthcare, Piscataway N.J.). After equilibration of the column with phosphate buffered saline (PBS), 2.5 mL of the lipoprotein fraction was loaded on the column and the flow-through discarded. The lipoprotein was then eluted with 3 mL of PBS. The LDL fractions were further diluted with PBS to obtain a 100 μg/mL apoB100 concentration.
LDL underwent oxidation following the addition of 10 μM CuSO4. To measure oxidation, 100 μL aliquots were removed and combined with 1.0 mL thiobarbituric acid (0.5%), 10 μL trichloroacetic acid (5%), 10 μL BHT (5 mg/mL in methanol), and 10 μL EDTA (5 mM). […] Sample TBARS concentrations were determined spectrophotometrically by measuring sample absorbances against a standard curve derived from the hydrolysis of 1,1,3,3-tetramethoxypropane.
Concurrent measurements of NO and ONOO^− were performed with tandem electrochemical nanosensors combined into one working unit with a total diameter of 200-400 nm. […]
The amperometric method (with a response time of 0.1 ms) provides a quantitative signal (current) that is directly proportional to changes (from basal levels) in NO or ONOO^− concentration. […] Basal NO or ONOO^− levels were measured by differential pulse voltammetry in separate experiments. […]

SMILES	antioxidant effect on glucose-induced LOOH formation ([1]; 1.0 μM, glucose 200 mg/dL, 96 hours)	effect on LOOH formation / lipid peroxidation ([1]; 72- and 96-hour time points, 1:30 drug-to-phospholipid mole ratio, glucose 200 mg/dL)	effect on membrane LOOH formation ([1]; tested at 1.0 and 5.0 μM, glucose-treated)	LOOH formation compared to vehicle, glucose, glucose + EA, glucose + ETE [2]	NO/ONOO^− Ratio [3]	NO release ([3]; calcium ionophore)	NO/ONOO^− Ratio ([3]; listed as niacin)
CC/C=C\C/C=C\C/C=C\C/C=C\C/C=C\CCCC(=O)O [EPA, cis-5,8,11,14,17-eicosapentaenoic acid]	potent antioxidant effects	significantly inhibited LOOH formation	inhibit membrane LOOH formation in a dose-dependent manner	significantly less LOOH formation	–	–	–
O=C(O)c1cccnc1 [Niacin, nicotinic acid]	–	–	–	–	1.45 ± 0.14	346 ± 17	1.45±0.14
